# Test system: PGE2/EP4 signal transduction in MCF7 cells
# Test: Determination of MCF7 cAMP (PGE2-stimulated, HTRF)
# Format: cell-based
# Details: Homo sapiens; MCF7 cells, 10 nM PGE2 stimulation, cAMP HTRF; read-out: MCF7 cAMP IC50
# Description: • a) MCF7 cells (ATCC, 6000 cells/well/40 μl) were inoculated into a 384-well cell culture plate containing a medium (DMEM containing 10% FBS and 1×PS), and incubated overnight at 37° C. and 5% CO2. • b) The medium was removed, 40 μl/well of serum-free medium was added, and the cells were incubated at 37° C. and 5% CO2 for 5 hours. • c) The medium was replaced with 18 μL/well of HBSS buffer (Hepes 20 mM, 0.1% BSA, 500 μM IBMX). • d) The compound in DMSO was diluted (1/5 dilution, 9+0 dose). • e) 2 μL of the compound in d) was added to 98 μL of HBSS buffer. • f) 1 μL/well of the diluted compound in e) was added to the cells, with a final starting concentration of 1 μM, and the cells were incubated at 37° C. for 1 hour. • g) The cells were stimulated with 1 μL/well of PGE2 (10 mM DMSO stock solution) (final concentration: 10 nM, and DMSO final concentration: 0.2%), and incubated at 37° C. for 30 minutes. • h) After the incubation, 10 μL/well of cAMP-d2 and 10 μL/well of anti-cAMP were added, RT 1 h. • i) HTRF signals (665 nm/615 nm) were read on Envision. Data Analysis: • High control: 1 μM E7046 • Low control: DMSO • Background: 30 μL/well of lysis buffer+10 μL/well of anti-cAMP • Analytical data: original date—background Inhibition %: 100−100×(high control−analytical data)/(high control−low control)
row,Compound,IC50 [nM]
1,"CC(NC(=O)c1cncc2ccn(Cc3cc4ccccc4o3)c12)C12CC(C(=O)O)(C1)C2 (racemic) [Compound 26, 3-(1-(1-(Benzofuran-2-ylmethyl)-1H-pyrrolo[3,2-c]pyridine-7-carboxamido)ethyl)bicyclo[1.1.1]pentane-1-carboxylic acid]",60
2,"O=C(NC1(C23CC(C(=O)O)(C2)C3)CC1)c1cccc2ccn(Cc3ccc(-c4ccccc4CO)cn3)c12 [Compound 19, 3-(1-(1-((5-(2-(Hydroxymethyl)phenyl)pyridin-2-yl)methyl)-1H-indole-7-carboxamido)cyclopropyl)bicyclo[1.1.1]pentane-1-carboxylic acid]",106
3,"O=C(NC1(C23CC(C(=O)O)(C2)C3)CC1)c1cccc2ccn(Cc3ccc(-c4cnn(CCCO)c4)cn3)c12 [Compound 16, 3-(1-(1-((5-(1-(3-Hydroxypropyl)-1H-pyrazol-4-yl)pyridin-2-yl)methyl)-1H-indole-7-carboxamido)cyclopropyl)bicyclo[1.1.1]pentane-1-carboxylic acid]",215
4,"C[C@@H](NC(=O)c1cccc2ccn(Cc3cc4ccccc4o3)c12)C12CC(C(=O)O)(C1)C2 [Compound 20-6, (R)-3-(1-(1-(benzofuran-2-ylmethyl)-1H-indole-7-carboxamido)ethyl)bicyclo[1.1.1]pentane-1-carboxylic acid]",78
5,"CC(NC(=O)c1cccc2ccn(Cc3cc4ccccc4o3)c12)C12CC(C(=O)O)(C1)C2 (racemic) [Compound 20, 3-(1-(1-(Benzofuran-2-ylmethyl)-1H-indole-7-carboxamido)ethyl)bicyclo[1.1.1]pentane-1-carboxylic acid]",34
6,"C[C@H](NC(=O)c1cncc2ccn(Cc3cc4ccccc4o3)c12)C12CC(C(=O)O)(C1)C2 [Compound 26-1, (S)-3-(1-(1-(benzofuran-2-ylmethyl)-1H-pyrrolo[3,2-c]pyridine-7-carboxamido)ethyl)bicyclo[1.1.1]pentane-1-carboxylic acid]",30
7,"O=C(NC1(C23CC(C(=O)O)(C2)C3)CC1)c1cccc2ccn(Cc3ccc(-c4ccccn4)cn3)c12 [Compound 11, 3-(1-(1-([2,3′-Bipyridin]-6′-ylmethyl)-1H-indole-7-carboxamido)cyclopropyl)bicyclo[1.1.1]pentane-1-carboxylic acid]",30
8,"C[C@@H](NC(=O)c1cncc2ccn(Cc3cc4ccccc4o3)c12)C12CC(C(=O)O)(C1)C2 [Compound 26-2, (R)-3-(1-(1-(benzofuran-2-ylmethyl)-1H-pyrrolo[3,2-c]pyridine-7-carboxamido)ethyl)bicyclo[1.1.1]pentane-1-carboxylic acid]",> 100
9,"O=C(NC1(C23CC(C(=O)O)(C2)C3)CC1)c1cccc2ccn(Cc3ccc(-c4cccnc4)cn3)c12 [Compound 12, 3-(1-(1-([3,3′-Bipyridin]-6-ylmethyl)-1H-indole-7-carboxamido)cyclopropyl)bicyclo[1.1.1]pentane-1-carboxylic acid]",62.9
10,"O=C(NC1(C23CC(C(=O)O)(C2)C3)CC1)c1cccc2ccn(Cc3ccc(N4CCOCC4)cn3)c12 [Compound 10, 3-(1-(1-((5-Morpholinopyridin-2-yl)methyl)-1H-indole-7-carboxamido)cyclopropyl)bicyclo[1.1.1]pentane-1-carboxylic acid]",72
11,"O=C(NC1(C23CC(C(=O)O)(C2)C3)CC1)c1cccc2ccn(Cc3ccc(Cl)cc3)c12 [Compound 4, 3-(1-(1-(4-Chlorobenzyl)-1H-indole-7-carboxamido)cyclopropyl)bicyclo[1.1.1]pentane-1-carboxylic acid]",61
12,"O=C(NC1(C23CC(C(=O)O)(C2)C3)CC1)c1cccc2ccn(Cc3ccc(C4CC4)cn3)c12 [Compound 18, 3-(1-(1-((5-Cyclopropylpyridin-2-yl)methyl)-1H-indole-7-carboxamido)cyclopropyl)bicyclo[1.1.1]pentane-1-carboxylic acid]",62.9
13,"O=C(NC1(C23CC(C(=O)O)(C2)C3)CC1)c1cccc2ccn(Cc3ccc(N4CCCC(O)C4)cn3)c12 (centres unmarked) [Compound 17, 3-(1-(1-((5-(3-Hydroxypiperidin-1-yl)pyridin-2-yl)methyl)-1H-indole-7-carboxamido)cyclopropyl)bicyclo[1.1.1]pentane-1-carboxylic acid]",35

# Compounds with a lower IC50, results first:
row,IC50 [nM],Compound
1,1.2,[2H]C1([2H])C([2H])([2H])C1(NC(=O)c1cccc2ccn(Cc3cc4ccccc4o3)c12)C12CC(C(=O)O)(C1)C2 [Compound 31]
2,1.5,"O=C(NC1(C23CC(C(=O)O)(C2)C3)CC1)c1cncc2ccn(Cc3cc4cc(C(F)(F)F)ccc4o3)c12 [Compound 28, 3-(1-(1-((5-(Trifluoromethyl)benzofuran-2-yl)methyl)-1H-pyrrolo[3,2-c]pyridine-7-carboxamido)cyclopropyl)bicyclo[1.1.1] pentane-1-carboxylic acid]"
3,0.75,O=C(NC1(C23CC(C(=O)O)(C2)C3)CC1)c1cc(F)cc2ccn(Cc3cc4ccccc4o3)c12 [Compound 32]
4,7.8,"O=C(NC1(C23CC(C(=O)O)(C2)C3)CC1)c1cccc2ccn(Cc3ccc4ccccc4n3)c12 [Compound 3, 3-(1-(1-(Quinolin-2-ylmethyl)-1H-indole-7-carboxamido)cyclopropyl)bicyclo[1.1.1]pentane-1-carboxylic acid]"
5,14.5,"O=C(NC1(C23CC(C(=O)O)(C2)C3)CC1)c1cccc2ccn(Cc3ccc(-c4cn[nH]c4)cn3)c12 [Compound 15, 3-(1-(1-((5-(1H-Pyrazol-4-yl)pyridin-2-yl)methyl)-1H-indole-7-carboxamido)cyclopropyl) bicyclo[1.1.1]pentane-1-carboxylic acid]"
6,2.9,"O=C(NC1(C23CC(C(=O)O)(C2)C3)CC1)c1cc(Cl)cc2ccn(Cc3ccc(C(F)(F)F)cc3)c12 [Compound 8, 3-(1-(5-Chloro-1-(4-(trifluoromethyl)benzyl)-1H-indole-7-carboxamido)cyclopropyl)bicyclo[1.1.1]pentane-1-carboxylic acid]"
7,11.5,"O=C(NC1(C23CC(C(=O)O)(C2)C3)CC1)c1cccc2ccn(Cc3ccc(-c4ccncc4)cn3)c12 [Compound 13, 3-(1-(1-([3,4′-Bipyridin]-6-ylmethyl)-1H-indole-7-carboxamido)cyclopropyl)bicyclo[1.1.1]pentane-1-carboxylic acid]"
8,8,"O=C(NC1(C23CC(C(=O)O)(C2)C3)CC1)c1cccc2ccn(Cc3nc4ccccc4o3)c12 [Compound 23, 3-(1-(1-(Benzo[d]oxazol-2-ylmethyl)-1H-indole-7-carboxamido)cyclopropyl)bicyclo[1.1.1]pentane-1-carboxylic acid]"
9,12,"O=C(NC1(C23CC(C(=O)O)(C2)C3)CC1)c1cccc2ccn(Cc3nc4ccccc4s3)c12 [Compound 24, 3-(1-(1-(Benzo[d]thiazol-2-ylmethyl)-1H-indole-7-carboxamido)cyclopropyl)bicyclo[1.1.1]pentane-1-carboxylic acid]"
10,5.5,"O=C(NC1(C23CC(C(=O)O)(C2)C3)CC1)c1cccc2ccn(Cc3ccc(-c4ccccc4)nc3)c12 [Compound 5, 3-(1-(1-((6-Phenylpyridin-3-yl)methyl)-1H-indole-7-carboxamido)cyclopropyl)bicyclo[1.1.1]pentane-1-carboxylic acid]"
11,1.2,"O=C(NC1(C23CC(C(=O)O)(C2)C3)CC1)c1cncc2ccn(Cc3cc4cc(F)ccc4o3)c12 [Compound 27, 3-(1-(1-((5-Fluorobenzofuran-2-yl)methyl)-1H-pyrrolo[3,2-c]pyridine-7-carboxamido)cyclopropyl)bicyclo[1.1.1]pentane-1-carboxylic acid]"
12,1.5,"[2H]C(c1cc2ccccc2o1)n1ccc2cccc(C(=O)NC3(C45CC(C(=O)O)(C4)C5)CC3)c21 (centres unmarked) [Compound 29, 3-(1-(1-(Benzofuran-2-ylmethyl-d)-1H-indole-7-carboxamido)cyclopropyl)bicyclo[1.1.1]pentane-1-carboxylic acid]"
13,24.4,"Cn1cc(-c2ccc(Cn3ccc4cccc(C(=O)NC5(C67CC(C(=O)O)(C6)C7)CC5)c43)nc2)cn1 [Compound 14, 3-(1-(1-((5-(1-Methyl-1H-pyrazol-4-yl)pyridin-2-yl)methyl)-1H-indole-7-carboxamido)cyclopropyl)bicyclo[1.1.1]pentane-1-carboxylic acid]"
14,14,"C[C@H](NC(=O)c1cccc2ccn(Cc3cc4ccccc4o3)c12)C12CC(C(=O)O)(C1)C2 [Compound 20-5, (S)-3-(1-(1-(benzofuran-2-ylmethyl)-1H-indole-7-carboxamido)ethyl)bicyclo[1.1.1]pentane-1-carboxylic acid]"
15,1.1,"[2H]C([2H])(c1cc2ccccc2o1)n1ccc2cccc(C(=O)NC3(C45CC(C(=O)O)(C4)C5)CC3)c21 [Compound 30, 3-(1-(1-(1-Benzofuran-2-ylmethyl-d2)-1H-indole-7-carboxamido)cyclopropyl)bicyclo[1.1.1]pentane-1-carboxylic acid]"
16,1.4,"O=C(NC1(C23CC(C(=O)O)(C2)C3)CC1)c1cccc2ccn(Cc3cc4ccc(F)cc4o3)c12 [Compound 22, 3-(1-(1-((6-Fluorobenzofuran-2-yl)methyl)-1H-indole-7-carboxamido)cyclopropyl)bicyclo[1.1.1]pentane-1-carboxylic acid]"

# — patent publication US12240812B2, “Compound for inhibiting PGE2/EP4 signaling transduction inhibiting, preparation method therefor, and medical uses thereof” (Keythera (Suzhou) Pharmaceuticals Co. Ltd., priority 2019, dated 2025)
